The text below walks through data of PubChem BioAssay AID1259411 (Chemical Carcinogenesis Research Information System (CCRIS), 2018).

This series has as its system rodent carcinogenicity bioassays, tumor incidence. Briefly: CCRIS carcinogenicity studies. To be noted: Dose: 0. A digest of the protocol: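 NCI-built, expert-reviewed records of carcinogenicity and related test outcomes (mutagenicity, tumor promotion/inhibition) compiled from published and report sources, historical span 1985-2011, not updated.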

The source made the active and inactive calls. No rule for the calls is given here.

Take `C=CC#N`: the carcinogen call reads like this: (Species: RAT, Strain/Sex: SPRAGUE-DAWLEY/FEMALE, Route: GAVAGE, 5 MG/KG IN OLIVE OIL 1/D 3 D/WK FOR 52 WK (STUDY DURATION: LIFETIME)) “inactive; negative”; (Species: RAT, Strain/Sex: SPRAGUE-DAWLEY/FEMALE, Route: INHALATION, 60 PPM 4 HR/D 5 D/WK FOR 7 WK THEN 7 HR/D 5 D/WK FOR 8 WK ADMINISTRATION STARTED WITH EMBRYOS ON 12TH DAY OF GESTATIO) “inactive; negative”; (Species: RAT, Strain/Sex: SPRAGUE-DAWLEY/FEMALE, Route: INHALATION, 60 PPM 4 HR/D 5 D/WK FOR 7 WK THEN 7 HR/D 5 D/WK FOR 97 WK ADMINISTRATION STARTED WITH EMBRYOS ON DAY 12 OF GESTATION, Tumor Site: Type of Lesion: MAMMARY GLAND: TUMORS, LIVER: ANGIOSARCOMA, BRAIN: GLIOMA, Tumor Site: Type of Lesion: MAMMARY GLAND: TUMORS, LIVER: ANGIOSARCOMA, BRAIN: GLIOMA) “active; positive”; (Species: RAT, Strain/Sex: SPRAGUE-DAWLEY/FEMALE, Route: ORAL, 1, 100 PPM IN DRINKING WATER FOR 22 MO (STUDY DURATION: 20 MO), 1, 100 PPM IN DRINKING WATER FOR 22 MO (STUDY DURATION: 20 MO), Tumor Site: Type of Lesion: BRAIN: ASTROCYTOMA, ZYMBAL'S GLAND/EAR CANAL: ADENOMA OR CARCINOMA, FORESTOMACH: SQUAMOUS CELL PAPILLOMA/PAPILLOMA OR SQ, Tumor Site: Type of Lesion: BRAIN: ASTROCYTOMA, ZYMBAL'S GLAND/EAR CANAL: ADENOMA OR CARCINOMA, FORESTOMACH: SQUAMOUS CELL PAPILLOMA/PAPILLOMA OR SQ) “active; positive”; (Species: RAT, Strain/Sex: SPRAGUE-DAWLEY/MALE, Route: GAVAGE, 0.1, 10 MG/KG/D 7D/WK FOR 20 MO (STUDY DURATION: 20 MO), 0.1, 10 MG/KG/D 7D/WK FOR 20 MO (STUDY DURATION: 20 MO), Tumor Site: Type of Lesion: BRAIN: ASTROCYTOMA, ZYMBAL'S GLAND/EAR CANAL: CARCINOMA, FORESTOMACH: SQUAMOUS CELL PAPILLOMA/PAPILLOMA, SQUAMOUS CELL C, Tumor Site: Type of Lesion: BRAIN: ASTROCYTOMA, ZYMBAL'S GLAND/EAR CANAL: CARCINOMA, FORESTOMACH: SQUAMOUS CELL PAPILLOMA/PAPILLOMA, SQUAMOUS CELL C) “active; positive”; (Species: RAT, Strain/Sex: SPRAGUE-DAWLEY/MALE, Route: GAVAGE, 5 MG/KG BW IN OLIVE OIL 3/WK FOR 52 WK (STUDY DURATION: LIFETIME), Tumor Site: Type of Lesion: [BRAIN WAS ONLY SITE EVALUATED]) “inactive; negative”. Moreover, the carcinogen call (Species: RAT, Strain/Sex: SPRAGUE-DAWLEY/MALE, Route: GAVAGE, 5 MG/KG IN OLIVE OIL 1/D 3 D/WK FOR 52 WK (STUDY DURATION: LIFETIME)) is “inactive; negative”; the carcinogen call (Species: RAT, Strain/Sex: SPRAGUE-DAWLEY/MALE, Route: INHALATION, 60 PPM 4 HR/D 5 D/WK FOR 7 WK THEN 7 HR/D 5 D/WK FOR 8 WK ADMINISTRATION STARTED WITH EMBRYOS ON 12TH DAY OF GESTATIO) is “inactive; negative”; the carcinogen call (Species: RAT, Strain/Sex: SPRAGUE-DAWLEY/MALE, Route: INHALATION, 60 PPM 4 HR/D 5 D/WK FOR 7 WK THEN 7 HR/D 5 D/WK FOR 97 WK ADMINISTRATION STARTED WITH EMBRYOS ON DAY 12 OF GESTATION, Tumor Site: Type of Lesion: ZYMBAL GLAND: CARCINOMA, LIVER: HEPATOMA, BRAIN: GLIOMA, Tumor Site: Type of Lesion: ZYMBAL GLAND: CARCINOMA, LIVER: HEPATOMA, BRAIN: GLIOMA) was “active; positive”; the carcinogen call (Species: RAT, Strain/Sex: SPRAGUE-DAWLEY/MALE, Route: ORAL, 1, 100 PPM IN DRINKING WATER FOR 22 MO (STUDY DURATION: 20 MO), 1, 100 PPM IN DRINKING WATER FOR 22 MO (STUDY DURATION: 20 MO), Tumor Site: Type of Lesion: BRAIN: ASTROCYTOMA, ZYMBAL'S GLAND/EAR CANAL: ADENOMA OR CARCINOMA, FORESTOMACH: SQUAMOUS CELL PAPILLOMA/PAPILLOMA OR SQ, Tumor Site: Type of Lesion: BRAIN: ASTROCYTOMA, ZYMBAL'S GLAND/EAR CANAL: ADENOMA OR CARCINOMA, FORESTOMACH: SQUAMOUS CELL PAPILLOMA/PAPILLOMA OR SQ) is “active; positive”; the carcinogen call (Species: RAT, Strain/Sex: SPRAGUE-DAWLEY/MALE, Route: ORAL, 20, 100, 500 PPM IN DRINKING WATER FOR DURATION OF STUDY (STUDY DURATION: 2 YR), 20, 100, 500 PPM IN DRINKING WATER FOR DURATION OF STUDY (STUDY DURATION: 2 YR), Tumor Site: Type of Lesion: ZYMBAL'S GLAND: TUMOR) was “active; positive”; the carcinogen call (Species: Rat, Strain/Sex: Sprague Dawley/Female (80/group, Controls; 48/group, Experimental), Route: Oral, 35, 100, 300 ppm (0; 4.4; 10.8; 25.0 mg/kg) in drinking water for 2 yr, 35, 100, 300 ppm (0; 4.4; 10.8; 25.0 mg/kg) in drinking water for 2 yr, Tumor Site: Type of Lesion: Nervous system (brain and spinal cord): Combined focal or multifocal glial cell proliferation and/or astrocytoma (1/80) is “active; positive”. Besides, the carcinogen call (Species: Rat, Strain/Sex: Sprague Dawley/Male (80/group, Controls; 48/group, Experimental), Route: Oral, 35, 100, 300 ppm (0; 3.4; 8.5; 21.3 mg/kg in drinking water for 2 yr), 35, 100, 300 ppm (0; 3.4; 8.5; 21.3 mg/kg in drinking water for 2 yr), Tumor Site: Type of Lesion: Nervous system (brain and spinal cord): Combined focal or multifocal glial cell proliferation and/or astrocytoma (1/80) is “active; positive”.
